Results taken from ChEMBL document CHEMBL5137008, “Recent advances of antitumor shikonin/alkannin derivatives: A comprehensive overview focusing on structural classification, synthetic approaches, and mechanisms of action” (Eur J Med Chem, 2022).
pIC50: −log10 of the molar value.

What was measured:
Ca9-22 [1] = experiment: Cytotoxicity against human Ca9-22 cells assessed as reduction in cell viability incubated for 24 hrs by MTT assay; format: functional, cell-based; settings: Ca9-22, 24 h
Ca9-22 [2] = experiment: Cytotoxicity against human Ca9-22 cells assessed as reduction in cell viability incubated for 48 hrs by MTT assay; format: functional, cell-based; settings: Ca9-22, 48 h
MG-63 = experiment: Anticancer activity against human MG-63 cells assessed as inhibition of cell proliferation incubated for 48 hrs by MTT assay; format: functional, cell-based; settings: MG-63, 48 h
[3] = Inhibition of bovine brain tubulin polymerization preincubated with compound followed by GTP addition and measured after 20 mins by turbidimetry-based spectrophotometric method; design: species or system Bos taurus
[4] = Anticancer activity against human A875 cells assessed as inhibition of cell growth incubated for 24 hrs by MTT assay; format: functional, cell-based; settings: A875, 24 h
[5] = Antitubulin activity against bovine brain tubulin polymerization preincubated with compound followed by GTP addition by turbidimetry-based spectrophotometric method; design: species or system Bos taurus
HepG2 [6] = experiment: Antiproliferative activity against human HepG2 cells assessed as inhibition of cell proliferation incubated for 20 hrs by MTT assay; format: functional, cell-based; settings: HepG2, 20 h
HeLa = experiment: Antiproliferative activity against human HeLa cells assessed as inhibition of cell proliferation incubated for 24 hrs by MTT assay; format: functional, cell-based
[7] = Cytotoxicity against human HEK293T cells assessed as inhibition of cell growth incubated for 24 hrs in presence of foetal bovine serum by MTT assay; format: toxicity, cell-based, HEK-293T
MDA-MB-231 [8] = experiment: Antiproliferative activity against human MDA-MB-231 cells assessed as inhibition of cell growth incubated for 24 hrs by MTT assay; format: functional, cell-based; settings: MDA-MB-231, 24 h
MCF7 = experiment: Antiproliferative activity against human MCF7 cells assessed as inhibition of cell growth incubated for 24 hrs by MTT assay; format: functional, cell-based; settings: MCF7, 24 h
A549 = experiment: Antiproliferative activity against human A549 cells assessed as inhibition of cell proliferation incubated for 24 hrs by CCK-8 assay; format: functional, cell-based; settings: A549, 24 h
HepG2 [9] = experiment: Antiproliferative activity against human HepG2 cells incubated for 24 hrs by MTT assay; format: functional, cell-based; settings: HepG2, 24 h
MDA-MB-231 [10] = experiment: Antiproliferative activity against human MDA-MB-231 cells incubated for 24 hrs by MTT assay; format: functional, cell-based; settings: MDA-MB-231, 24 h
[11] = Cytotoxicity against African green monkey Vero cells incubated for 24 hrs by MTT assay; format: toxicity, cell-based, Chlorocebus sabaeus
HCT-15 = experiment: Anticancer activity against human HCT-15 cells incubated for 72 hrs by MTT assay; format: functional, cell-based; settings: HCT-15, 72 h
Fibroblast = experiment: Cytotoxicity against human skin fibroblast cells incubated for 72 hrs by MTT assay; format: functional, cell-based

Q: With CC(C)=CC[C@@H](O)C1=CC(=O)c2c(O)ccc(O)c2C1=O [SHIKONIN] as the compound, how does the pIC50 (Ca9-22 [1]) read?
A: 4.87

Q: What about the pIC50 (Ca9-22 [2]) of the same compound?
A: 4.89

Q: What about the pIC50 (MG-63) of the same compound?
A: 5.25

Q: And the pIC50 [3]?
A: 4.52

Q: What about the pIC50 [4] of the same compound?
A: 6.34

Q: And the pIC50 [5]?
A: 4.77

Q: And the pIC50 (HepG2 [6])?
A: 6.04

Q: What about the pIC50 (HeLa) of the same compound?
A: 5.24

Q: What about the IC50 at 24 h [7] of the same compound?
A: 9.27 µM

Q: And the pIC50 (MDA-MB-231 [8])?
A: 5.05

Q: What about the pIC50 (MCF7) of the same compound?
A: 5.11

Q: What about the pIC50 (A549) of the same compound?
A: 5.11

Q: What about the pIC50 (HepG2 [9]) of the same compound?
A: 5.56

Q: What about the pIC50 (MDA-MB-231 [10]) of the same compound?
A: 3.97

Q: And the IC50 at 24 h [11]?
A: 6.76 µM

Q: And the pIC50 (HCT-15)?
A: 6.03

Q: What about the pIC50 (Fibroblast) of the same compound?
A: 5.91
